# Literature values as cited in patent US6083980A, “Furanyl, tetracyclic triterpene derivatives with immunosuppressant activity” (Merck & Co., Inc., priority 1998, dated 2000).
# Tested on: Kv 1.3 channels (CHO cells transfected with Kv 1.3 channels)
# Conditions: stated for the reference blocker used to establish the efflux window
substance,measurement,value
"margatoxin (TIINVKCTSPKQCLPPCKAQFGQSAGAKCMNGKCKCYPH; UniProt P40755 1-39, looked up)",IC50,0.1 nM
